Among the data in ChEMBL document CHEMBL1150155, “Purealidin S and purpuramine J, bromotyrosine alkaloids from the Fijian marine sponge Druinella sp” (2002) are IC50 values, retold here.

Experiment [1] has as its system A2780. Nature of the experiment: Cytotoxicity against human A2780 cells. Conditions: read-out: ID50 (the source's name). It counts as functional.
Experiment [2] deals with K562. Nature of the experiment: Cytotoxicity against human K562 cells. In kind it is functional. Conditions: read-out: ID50 (the source's name).

SMILES strings stand for the structures. ≈ marks a conversion by molar mass, not a printed value.

As to `COC1=C(Br)[C@H](O)[C@@]2(C=C1Br)CC(C(=O)NCCCc1cnc(N)[nH]1)=NO2` [AEROPHOBIN 2], the IC50 in experiment [1] is above 10 µg/mL; in experiment [2], 6.91 µg/mL (≈ 13.7 µM).

As for `COc1ccc(C/C(=N\O)C(=O)NCCc2cc(Br)c(OCCC[N+](C)(C)[O-])c(Br)c2)cc1Br` [PURPUREAMINE J], the IC50 in experiment [1] stood at 6.77 µg/mL (≈ 10.2 µM); in experiment [2], 5.97 µg/mL (≈ 8.96 µM).

With `COC1=C(Br)[C@@H](O)[C@]2(C=C1Br)CC(C(=O)NCCc1cnc[nH]1)=NO2` [AEROPHOBIN 1], the IC50 is 21.5 µg/mL (≈ 45.2 µM) in experiment [1] and 24.1 µg/mL (≈ 50.6 µM) in experiment [2].

With `CNCCCOc1c(Br)cc(CCNC(=O)/C(Cc2ccc(OC)c(Br)c2)=N/O)cc1Br` [PURPUREAMINE I], the IC50 in experiment [1] is 1.7 µg/mL (≈ 2.67 µM); in experiment [2], 1.24 µg/mL (≈ 1.95 µM).

Regarding `COC1=C(Br)[C@@H](O)[C@]2(C=C1Br)CC(C(=O)NCCc1cnc(N)[nH]1)=NO2` [PUREALIDIN J], the IC50 in experiment [1] and in experiment [2] was above 10 µg/mL in each case.

`CNCCCOc1c(Br)cc(CCNC(=O)C2=NO[C@]3(C=C(Br)C(OC)=C(Br)[C@@H]3O)C2)cc1Br`: the IC50 in experiment [1] was 7.44 µg/mL (≈ 10.2 µM); in experiment [2], 6.02 µg/mL (≈ 8.23 µM).

In the case of `COC1=C(Br)[C@H](O)[C@@]2(C=C1Br)CC(C(=O)NCCCOc1c(Br)cc(CCNC(=O)CCCCCCCCCCCC(C)C)cc1Br)=NO2` [ARAPLYSILLIN 2], the IC50 in experiment [1] turned out to be 14.8 µg/mL (≈ 15.7 µM); in experiment [2] it was 42.7 µg/mL (≈ 45.4 µM).

Regarding `COc1ccc(C/C(=N/O)C(=O)NCCc2cc(Br)c(OCCCN(C)C)c(Br)c2)cc1Br` [APLYSAMINE 2], the values for the IC50 in experiment [1] and in experiment [2] were 2.83 µg/mL (≈ 4.35 µM) and 1.37 µg/mL (≈ 2.11 µM), respectively.

For the compound `COC1=C(Br)[C@@H](O)[C@]2(C=C1Br)CC(C(=O)NCCCOc1c(Br)cc(CCN)cc1Br)=NO2` [ARAPLYSILLIN 1], the IC50 in experiment [1] is 18.6 µg/mL (≈ 25.9 µM); in experiment [2], 27.9 µg/mL (≈ 39 µM).
